# Measured values as given in paper PMC8151276, “An Integrated Approach toward NanoBRET Tracers for Analysis of GPCR Ligand Engagement” (Molecules, 2021).
# Assays:
# Type in all cases: binding
# CXCR3 = target: T1, CXCR3 (Homo sapiens, UniProt P49682); assay: NanoBRET screen HiBiT-CXCR3 in HEK293
# T1 construct: purchased Promega (in-house HiBiT-GPCR construct library, NanoBRET)
# T1 sequence (P49682 1-368): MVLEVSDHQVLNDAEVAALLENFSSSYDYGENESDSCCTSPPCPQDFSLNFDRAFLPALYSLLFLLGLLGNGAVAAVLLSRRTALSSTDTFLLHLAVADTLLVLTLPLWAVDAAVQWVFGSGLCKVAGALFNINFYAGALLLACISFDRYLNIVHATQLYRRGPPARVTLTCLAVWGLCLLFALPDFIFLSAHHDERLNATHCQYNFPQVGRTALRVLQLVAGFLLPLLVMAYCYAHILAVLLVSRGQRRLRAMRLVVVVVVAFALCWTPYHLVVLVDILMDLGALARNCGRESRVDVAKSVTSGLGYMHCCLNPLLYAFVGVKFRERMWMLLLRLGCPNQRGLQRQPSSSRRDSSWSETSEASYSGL
# Description: (§1) Each tracer candidate was screened across the entire library of HiBiT-GPCR constructs using NanoBRET as the detection modality. As depicted in Figure 4A, the specificity of interactions was evaluated through decrease in BRET due to competitive displacement of a bound tracer by excess parental compound. Each tracer was analyzed for binding to each HiBiT-GPCR fusion in the absence and in the presence of competing parental compound. Briefly, HEK293 cells were transfected with HiBiT-GPCR constructs diluted into promoterless DNA to reduce expression and maximize translocation to the cell surface. Each tracer candidate was then screened at concentrations of 1 μM and 0.1 μM across cells expressing these fusions. Cells were treated for 1.5 h with tracer either alone or in the presence of 20 μM competing parental compound (i.e., control). BRET was measured upon addition of purified LgBiT and subsequent complementation with HiBiT genetically fused to a GPCR. The specificity of interactions was assessed through a decrease in BRET signal due to competitive displacement of the bound tracer. To further gauge the robustness of these interactions, the fold response over the control (i.e., BRETtracer/BRETcontrol) was calculated. We chose a 1.5-fold response, which translates to ≥7-fold signal over noise as the minimal threshold required to score an interaction as positive. […]. Below we highlight the screening results obtained for our exemplary fluorescent tracers based on Clozapine, Amitriptyline and AZD1283.
# (§2) HiBiT-GPCR DNA constructs were diluted in 10 mM Tris pH 8 to a final concentration of 0.01 μg/μL, arrayed in 96-well plates and stored at −20 °C. For transfection, HEK293 cells were suspended in Opti-MEM (without phenol red) supplemented with 2% fetal bovine serum (Seradigm) and 100 units/mL penicillin–streptomycin (Gibco) at a final concentration of 220,000 cells/mL and dispensed into white 96-well plates at 90 μL/well. Subsequent transfections and screens were carried using an Agilent Bravo Automated Liquid Handling Platform. First, the 96-well HiBiT DNA arrays were diluted 25-fold in Opti-MEM (without serum or phenol red) to a final concentration of 0.0004 μg/μL and 20 μL of the diluted DNAs were transferred into new 96-well plates. Next, promoterless carrier DNA (1 μg/μL) was diluted 25-fold (0.04 μg/μL) and then dispensed into the diluted arrays at 20 μL/well. Following brief mixing, Viafect transfection reagent (Promega) diluted 16-fold into Opti-MEM was dispensed into the plates at 40 μL/well. After mixing by pipetting, plates were incubated for 10 min on the pipetting station deck. The DNA-transfection reagent complexes were then added to plates containing cells. To facilitate the screen, 10 μL of DNA-transfection reagent complexes were added in duplicates to the top 4 and bottom 4 rows, resulting in two identical 48-well arrays per plate. Plates with transfected cells were incubated for 18–20 h at 37 °C/5% CO2. A screen of each tracer across the entire library using two different concentrations requires duplicate plates of transfected cells. Depending on the number of tracers being screened, transfections can be scaled up using the same ratios. The next day, for each tracer, four 20× screening solutions in tracer dilution buffer (Promega) were prepared: two duplicates at final concentration of 20 μM and two duplicates at a final concentration of 2 μM. A competing unmodified compound was added to one of each duplicate at a final concentration of 400 μM. The four resulting solutions were diluted 4-fold in Opti-MEM without serum or phenol red to generate 5× solutions (5 µM and 0.5 µM tracer +/− 100 μM competing compound). To screen the library, a BioTek MultiFlo FX liquid dispenser was used to dispense 22.5 µL of tracer solution to the top 4 rows and 22.5 µL tracer + competing compound solution to the 4 bottom rows. Plates were briefly mixed on an orbital shaker and incubated for 1.5 h at room temperature. […]
# FZD4 = target: T2, FZD4 (Homo sapiens, UniProt Q9ULV1); assay: NanoBRET screen HiBiT-FZD4 in HEK293
# T2 construct: purchased Promega (in-house HiBiT-GPCR construct library, NanoBRET)
# T2 sequence (Q9ULV1 37-537): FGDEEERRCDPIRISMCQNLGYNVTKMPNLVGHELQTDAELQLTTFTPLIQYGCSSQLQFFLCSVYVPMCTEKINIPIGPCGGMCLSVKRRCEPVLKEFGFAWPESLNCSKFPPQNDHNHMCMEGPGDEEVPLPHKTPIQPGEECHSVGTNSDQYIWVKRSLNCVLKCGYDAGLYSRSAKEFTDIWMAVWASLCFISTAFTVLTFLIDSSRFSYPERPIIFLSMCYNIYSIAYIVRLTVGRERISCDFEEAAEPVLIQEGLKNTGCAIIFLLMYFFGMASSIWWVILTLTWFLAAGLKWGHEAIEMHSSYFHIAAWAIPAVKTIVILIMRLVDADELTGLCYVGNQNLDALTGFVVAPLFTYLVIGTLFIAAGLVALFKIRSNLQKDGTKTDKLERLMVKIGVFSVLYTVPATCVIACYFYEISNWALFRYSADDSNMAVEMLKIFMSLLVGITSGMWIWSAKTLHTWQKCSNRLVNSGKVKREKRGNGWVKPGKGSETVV
# Description: as §1, §2
# MCHR1 = target: T3, MCHR1 (Homo sapiens, UniProt Q99705); assay: NanoBRET screen HiBiT-MCHR1 in HEK293
# T3 construct: purchased Promega (in-house HiBiT-GPCR construct library, NanoBRET)
# T3 sequence (Q99705 whole entry): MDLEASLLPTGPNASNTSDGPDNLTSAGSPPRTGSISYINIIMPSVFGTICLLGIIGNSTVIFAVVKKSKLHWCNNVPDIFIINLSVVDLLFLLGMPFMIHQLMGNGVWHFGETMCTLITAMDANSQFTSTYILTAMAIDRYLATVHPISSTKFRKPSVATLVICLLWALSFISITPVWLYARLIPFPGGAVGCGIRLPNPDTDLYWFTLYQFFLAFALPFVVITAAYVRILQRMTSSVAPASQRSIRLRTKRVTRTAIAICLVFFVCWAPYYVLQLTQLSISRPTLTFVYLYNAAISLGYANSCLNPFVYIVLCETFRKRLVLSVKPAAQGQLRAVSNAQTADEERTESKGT
# Description: as §1, §2
# SSTR5 = target: T4, SSTR5 (Homo sapiens, UniProt P35346); assay: NanoBRET screen HiBiT-SSTR5 in HEK293
# T4 construct: purchased Promega (in-house HiBiT-GPCR construct library, NanoBRET)
# T4 sequence (P35346 whole entry): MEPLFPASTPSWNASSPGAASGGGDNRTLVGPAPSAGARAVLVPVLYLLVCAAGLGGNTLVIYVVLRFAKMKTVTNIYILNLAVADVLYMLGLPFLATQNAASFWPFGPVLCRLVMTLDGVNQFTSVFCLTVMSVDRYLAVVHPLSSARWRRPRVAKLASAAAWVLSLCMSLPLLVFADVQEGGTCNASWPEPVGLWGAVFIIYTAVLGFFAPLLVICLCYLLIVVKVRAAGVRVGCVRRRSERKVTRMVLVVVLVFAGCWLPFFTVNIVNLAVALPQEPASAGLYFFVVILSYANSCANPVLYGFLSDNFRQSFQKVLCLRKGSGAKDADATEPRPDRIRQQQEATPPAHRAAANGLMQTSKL
# Description: as §1, §2
SMILES,"NanoBRET Fold Response (CXCR3; CXCR3, tracer 0.1μM)","NanoBRET Fold Response (CXCR3; CXCR3, tracer 1μM)","NanoBRET Fold Response (FZD4; FZD4, tracer 0.1μM)","NanoBRET Fold Response (FZD4; FZD4, tracer 1μM)","NanoBRET Fold Response (MCHR1; MCHR1, tracer 0.1μM)","NanoBRET Fold Response (MCHR1; MCHR1, tracer 1μM)","NanoBRET Fold Response (SSTR5; SSTR5, tracer 0.1μM)","NanoBRET Fold Response (SSTR5; SSTR5, tracer 1μM)",other results
O=C(CCc1ccc2n1[B-](F)(F)[N+]1=C(c3ccc[nH]3)C=CC1=C2)NCc1ccc(C(=O)NCCOCCC(=O)N[C@@H]2CC[C@@]3(O)[C@H]4Cc5ccc(O)c6c5[C@@]3(CCN4CC3CC3)[C@H]2O6)cc1 [Naltrexone-3-NB590],1.39,0.78,0.89,1.14,1.07,0.92,0.96,0.96,
CCCn1c(=O)c2[nH]c(-c3ccc(OCC(=O)NCCNC(=O)CCOCCNC(=O)c4ccc(CNC(=O)CCc5ccc6n5[B-](F)(F)[N+]5=C(c7ccc[nH]7)C=CC5=C6)cc4)cc3)nc2n(CCC)c1=O [XAC-3-NB590],0.93,1.60,1.15,1.12,1.01,1.03,0.99,1.01,
CC(C)N(CC[C@H](c1ccccc1)c1cc(CCNC(=O)c2ccc(CNC(=O)CCc3ccc4n3[B-](F)(F)[N+]3=C(c5ccc[nH]5)C=CC3=C4)cc2)ccc1O)C(C)C [Tolterodine-BZ-NB590],1.11,0.96,0.93,1.07,0.83,0.95,1.08,1.04,
COc1ccc2[nH]c(-c3ccc(CNC(=O)CCOCCOCCOCCOCCNC(=O)CCc4ccc5n4[B-](F)(F)[N+]4=C(c6ccc[nH]6)C=CC4=C5)cc3)c(CCNC(C)=O)c2n1 [AzomelatoninICO9-2-NB590],,,,,,,,,NanoBRET Fold Response (CXCR3; 0.1μM tracer): 0.79; NanoBRET Fold Response (CXCR3; 1μM tracer): 0.91; NanoBRET Fold Response (FZD4; 0.1μM tracer): 0.89; NanoBRET Fold Response (FZD4; 1μM tracer): 1.08; NanoBRET Fold Response (MCHR1; 0.1μM tracer): 1.38; NanoBRET Fold Response (MCHR1; 1μM tracer): 0.88; NanoBRET Fold Response (SSTR5; 0.1μM tracer): 1.01; NanoBRET Fold Response (SSTR5; 1μM tracer): 1.01
CN1CCN(C2=Nc3cc(Cl)ccc3N(CC(=O)NCCOCCOCCOCCOCCNC(=O)CCc3ccc4n3[B-](F)(F)[N+]3=C(c5ccc[nH]5)C=CC3=C4)c3ccccc32)CC1 [Clozapine-c-2-NB590],,,,,,,,,"NanoBRET Fold Response (CXCR3; CXCR3, 0.1μM tracer): 1.01; NanoBRET Fold Response (CXCR3; CXCR3, 1μM tracer): 0.76; NanoBRET Fold Response (FZD4; FZD4, 0.1μM tracer): 1.02; NanoBRET Fold Response (FZD4; FZD4, 1μM tracer): 0.93; NanoBRET Fold Response (MCHR1; MCHR1, 0.1μM tracer): 1.00; NanoBRET Fold Response (MCHR1; MCHR1, 1μM tracer): 0.93; NanoBRET Fold Response (SSTR5; SSTR5, 0.1μM tracer): 1.01; NanoBRET Fold Response (SSTR5; SSTR5, 1μM tracer): 0.99"
COc1ccccc1N1CCN(CCCCN2C(=O)c3ccc(CNC(=O)CCOCCNC(=O)c4ccc(CNC(=O)CCc5ccc6n5[B-](F)(F)[N+]5=C(c7ccc[nH]7)C=CC5=C6)cc4)cc3C2=O)CC1 [NAN-190-3-NB590],0.97,1.01,1.03,1.38,1.20,0.86,1.02,1.03,
